From patent US20050232864A1, “Method for phenotyping using nmr spectroscopy” (priority 2002, published 2005)

Test: Pharmacokinetic parameters of CBZ in rabbit plasma by DNP-NMR compared with LC-MS (Example 3)
Assay type: in vivo
Details: single oral dose 40 mg/kg CBZ
Procedure: Samples were collected at 8 time points over a period of 24 hours, at the following times: 0 min., 15 min., 30 min., 1 hour, 2 hours, 4 hours, 8 hours and 24 hours. 2 ml blood was withdrawn from the marginal ear vein of the rabbit. Plasma was extracted from the blood and divided into two samples, one for LC-MS analysis and one for DNP and NMR analysis (˜0.5 ml for each).
Rabbit plasma (400 μl) in a 2 ml vial was treated with acetonitrile (750 μl) and sonicated with a sonication probe for 15 sec. Another portion of acetonitrile (750 μl) was added to the vial so as to rinse the probe, the vial was closed, agitated briefly on a whirly mixer and centrifuged at 14 000 rev/min for about 1 min. The supernatant was transferred into a fresh vial in portions and evaporated in a ThermoSavant SPD 111V speedvac. Towards the end of the evaporation, 20 μl of an aqueous stock solution of EDTA (1 μg/μl) was added and the mixture was evaporated to dryness. 50 μl of the stock solvent as described below was added to the solid residue, and the added weight was noted. The sample was sonicated for 15 min to dissolve the residue and centrifuged to force the whole sample to the bottom of the vial. The vial was weighed together with a pipette tip and the sample was collected into the pipette tip and dispensed drop wise into liquid nitrogen. The used vial and pipette tip was weighed again to assess the actual weight of the sample. The cooled sample pellets were placed in a sample cup and administered into a DNP-polariser.
The volume of the radical is not accounted for in the calculation.
The sample was dissolved in heated (60° C.) methanol-D4 containing 75 μg EDTA per 7.0 ml of methanol. The dissolved sample was collected in a 10 mm NMR-tube fitted with a NMR-spinner and kept in a portable magnetic field (12 mT). The sample was moved from the polariser into the NMR magnet as expediently as possible making sure that the tube is protected in the portable magnetic field during the transport.
A 1D ^13C NMR-spectrum was acquired with a 10 mm Varian direct detection probe at 100.393 MHz (400 MHz ^1H). […] The NMR acquisition parameters were a spectral width of 40 kHz (400 ppm), an acquisition time of 2.5 s, and a pulse angle of 90. […] The spectrum was acquired 5 s after dissolution was initiated.
First, the reference ^13C-NMR signal from HP001 was analysed by selecting one Lorentzian line shape model function to describe the signal. The algorithm calculates phase, amplitude, damping (or line width in frequency domain) and frequency. The first order phase was set fixed at zero. […] All phases of the peaks were zero with respect to the main phase and a Lorentzian line shape model function was assumed. […] The first order phase was fixed at zero, the zero order phase was determined by the algorithm.
0.11 μg, 0.33 μg, 0.5 μg, 1.0 μg, 1.5 μg, and 2.0 μg were spiked into […] rabbit plasma, incubated at 37° C. and prepared as described in the section on sample preparation.

[1] = Table 2, footnote: E-CBZ levels calculated, DNP-NMR
[2] = Table 2, footnote: E-CBZ levels calculated, LC-MS

AUC0.5-8h (Table 1, CBZ levels, DNP-NMR): 52 µM·h
Cmax (Table 1, CBZ levels, DNP-NMR): 12 µM
AUC0.5-8h (Table 1, CBZ levels, LC-MS): 60 µM·h
Cmax (Table 1, CBZ levels, LC-MS): 13.3 µM
AUC0.5-8h [1]: 52 µM·h
Cmax [1]: 12 µM
AUC0.5-8h [2]: 60 µM·h
Cmax [2]: 13.3 µM
Substance: carbamazepine [CBZ]
